According to US11230525B2, “Organic sulfur compound, method for preparing same, and pharmaceutical composition for preventing or treating cancer or an inflammatory disease, containing same as active ingredient” (SOOKMYUNG WOMENS UNIVERSITY INDUSTRY-ACADEMIC COOPERATION …, priority 2016, dated 2022):
pIC50: −log10 of the molar value. Like-named read-outs stand apart in the source and are kept apart here.

What was measured:
HDAC 8 = biological target: T1, HDAC 8 (Homo sapiens, UniProt Q9BY41); test: HDAC enzyme fluorescence assay, HDAC 8; type: biochemical; parameters: Inhibitory activity (%) HDAC 8: concentration or dose not given beside the values; details: for Inhibitory activity (%) HDAC 8: (HDAC inhibitory activity of example compound/HDAC inhibitory activity of SAHA) × 100
T1 sequence (Q9BY41 1-377): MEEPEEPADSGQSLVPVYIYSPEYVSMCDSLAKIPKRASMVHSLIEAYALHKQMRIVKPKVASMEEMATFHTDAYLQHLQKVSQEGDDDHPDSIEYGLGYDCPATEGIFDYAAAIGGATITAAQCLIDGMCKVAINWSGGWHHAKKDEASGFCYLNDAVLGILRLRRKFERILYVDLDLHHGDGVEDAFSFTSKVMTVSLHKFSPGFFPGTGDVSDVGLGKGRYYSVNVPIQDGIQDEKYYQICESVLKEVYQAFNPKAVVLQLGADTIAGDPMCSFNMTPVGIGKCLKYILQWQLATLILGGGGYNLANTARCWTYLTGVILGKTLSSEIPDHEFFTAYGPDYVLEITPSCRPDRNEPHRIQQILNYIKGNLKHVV
Summary of the method: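 Recombinant HDAC8 preincubated 10 min with compound in 25 mM HEPES pH 8.0, 137 mM NaCl, 1 mM MgCl2, 2.7 mM KCl, then Boc-Lys(acetyl)-AMC added at 37° C (level and time set per isoform). Trypsin development 20 min at room temperature, fluorescence 380/460 nm; activity expressed as percent relative to SAHA reference.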

[1] = tested on: renal cancer cell line (ACHN); test: Cancer proliferation inhibitory activity (SRB, GI50), ACHN; type: cell-based; details: Homo sapiens, 48 hours
Summary of the method: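 Human tumour cells in serum-supplemented RPMI 1640 received test compound (0.1 μM to 10 μM; untreated wells had 0.1% DMSO). Two days later they were TCA-fixed and SRB-stained, dye absorbance at 540 nm was recorded, and growth inhibition was expressed as GI50.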

HDAC 6 = biological target: T2, HDAC 6 (Homo sapiens, UniProt Q9UBN7); test: HDAC enzyme fluorescence assay, HDAC 6; type: biochemical; details: recombinant HDAC enzyme, Boc-Lys(acetyl)-AMC
T2 sequence (Q9UBN7 1-1215): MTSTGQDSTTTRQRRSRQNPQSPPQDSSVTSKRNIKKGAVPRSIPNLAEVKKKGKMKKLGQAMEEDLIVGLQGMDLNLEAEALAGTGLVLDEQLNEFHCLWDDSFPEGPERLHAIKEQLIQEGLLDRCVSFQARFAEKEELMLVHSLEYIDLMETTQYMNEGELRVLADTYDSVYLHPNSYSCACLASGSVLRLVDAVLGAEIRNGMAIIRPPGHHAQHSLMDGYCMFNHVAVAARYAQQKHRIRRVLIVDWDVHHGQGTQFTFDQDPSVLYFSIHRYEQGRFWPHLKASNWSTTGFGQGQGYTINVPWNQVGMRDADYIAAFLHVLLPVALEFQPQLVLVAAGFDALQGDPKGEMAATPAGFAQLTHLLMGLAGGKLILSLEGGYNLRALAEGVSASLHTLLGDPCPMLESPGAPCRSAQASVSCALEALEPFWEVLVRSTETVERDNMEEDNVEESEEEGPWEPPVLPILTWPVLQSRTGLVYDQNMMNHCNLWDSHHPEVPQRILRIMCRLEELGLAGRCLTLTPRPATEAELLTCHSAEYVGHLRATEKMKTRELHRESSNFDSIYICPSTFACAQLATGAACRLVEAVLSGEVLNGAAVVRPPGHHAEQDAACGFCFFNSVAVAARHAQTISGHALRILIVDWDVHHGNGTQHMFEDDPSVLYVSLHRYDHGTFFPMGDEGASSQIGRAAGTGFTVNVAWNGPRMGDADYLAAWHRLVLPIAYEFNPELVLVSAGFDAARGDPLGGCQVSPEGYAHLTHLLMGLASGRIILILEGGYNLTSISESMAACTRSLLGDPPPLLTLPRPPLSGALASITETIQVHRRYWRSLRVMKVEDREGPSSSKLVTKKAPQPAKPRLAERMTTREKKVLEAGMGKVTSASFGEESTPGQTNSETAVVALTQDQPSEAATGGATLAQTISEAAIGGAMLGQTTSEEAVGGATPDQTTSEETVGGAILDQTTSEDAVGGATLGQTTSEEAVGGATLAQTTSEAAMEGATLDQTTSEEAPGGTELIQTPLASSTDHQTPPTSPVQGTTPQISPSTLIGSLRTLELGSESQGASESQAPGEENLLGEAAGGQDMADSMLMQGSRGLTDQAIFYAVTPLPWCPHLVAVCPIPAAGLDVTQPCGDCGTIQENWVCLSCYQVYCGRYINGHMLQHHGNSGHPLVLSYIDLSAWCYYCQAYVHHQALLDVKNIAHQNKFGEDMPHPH
Protocol: Particularly, HDAC enzyme analysis was performed based on a uniform fluorescence emission assay. First, the compounds of examples of the present invention or comparative example 1 were diluted at different concentrations, which were treated to the analysis buffer containing 25 mM HEPES (pH 8.0), 137 mM NaCl, 1 mM MgCl2 and 2.7 mM KCL, followed by culture of the recombinant HDAC enzyme. 10 minutes later, Boc-Lys(acetyl)-AMC, the fluorescence inducing substrate, was added thereto, followed by further culture at 37° C. At this time, the concentration of the fluorescence inducing substrate and the culture time were adjusted according to the isotypes of the HDAC enzyme. The reaction was terminated by treating trypsin at room temperature for 20 minutes. The fluorescence intensity was measured using a fluorescence analyzer at an excitation wavelength of 380 nm and an emission wavelength of 460 nm, respectively. The inhibition rate was calculated from the measured fluorescence intensity of each well with comparing to that of the control well. IC50 of the compound was calculated by analyzing the dose-reaction inhibition curve.

SMILES	Inhibitory activity (%) HDAC 8 (HDAC 8)	pIC50 (HDAC 8; read-out: IC50 against HDAC 8)	GI50 [1]	pIC50 (HDAC 6)	pIC50 (HDAC 8; recombinant HDAC enzyme, Boc-Lys(acetyl)-AMC, read-out: IC50 HDAC 8)
CCCSS/C=C\C[S+]([O-])c1cccc(OC)c1 (centres unmarked) [Example 18, (Z)-1-(3-(3-methoxyphenylsulfinyl)prop-1-enyl)-2-propyldisulfane]	147.2%	7.46	2.06 µM	5.96	
COc1ccc([S+]([O-])C/C=C\SSCc2ccccc2)cc1 (centres unmarked) [Example 32, (Z)-1-benzyl-2-(3-(4-methoxyphenylsulfinyl)prop-1-enyl)disulfane]	150.4%		3.12 µM	6.26	7.43
